The IC50 is the concentration that gives 50% inhibition. Lower therefore signals greater potency in that assay.

Data on 15 compounds can be found in US6780853B1, “Neuroactive steroids of the androstane and pregnane series” (priority 1995, dated 2004).

Experiment [1] deals with metrazol induced convulsions. The experiment is described as follows: Antimetrazol activity in mice. The class given is in vivo. As to the method: Experiments were also performed to determine the physiological relevance of neuroactive steroid and GABA receptor interactions by assessing the ability of compounds of the present invention to prevent metrazol induced convulsions in mice. Mice were injected with various doses of the test compounds of the invention, 10 minutes prior to the injection of metrazol. The time to onset of myoclonus (presence of forelimb clonic activity) induced by metrazol was determined by observing each mouse for a period of 30 minutes. In control mice, metrazol (85 mg/kg) will induce convulsion in 95% of the animals.
The anticonvulsant tests are similar to that described above.

Experiment [2] deals with GABA receptor complex (GRC). Put plainly: [35S]TBPS binding in rat cerebral cortex P2 homogenate. Particulars: for IC50: concentration to inhibit 50% of control [35S]TBPS binding, 2 nM [35S]TBPS; for IMAX (maximum inhibition): maximum inhibition of [35S]TBPS binding. An excerpt:
To those skilled in the art, it is known that the modulation of [^35S]t-butylbicyclophosphorothionate ([^35S]TBPS) binding is a measure of the potency and efficacy of drugs acting at the GRC, which drugs may be of potential therapeutic value in the treatment of stress, anxiety, and seizure disorders (Squires, R. F., et al., Mol, Pharmacol., 23:326 (1983); Lawrence, L. J., et al., Biochem. Biophys. Res. Comm., 123:1130-1137 (1984); Wood, et al., Pharmacol, Exp. Ther., 231:572-576 (1984)). Several experiments were performed previously to determine the nature of the modulation of [^35S]TBPS as affected by neuroactive steroids. […] Furthermore, these compounds have high potency and efficacy at the GRC, with stringent structural requirements for such activity.
The procedures for performing this assay are fully discussed in: (1) Gee, K. W. et al., European Journal of Pharmacology, 136:419-423 (1987)); and (2) Gee, et al., Molecular Pharmacology 30:218 (1986). These procedures were performed as follows:
Brains from male Sprague-Dawley rats were removed immediately following sacrifice and the cerebral cortices dissected over ice. A P2 homogenate was prepared as previously described (Gee, et al., Molecular Pharmacology 30:218 (1986)). Briefly, the cortices were gently homogenized in 032 M sucrose followed by centrifugation at 1000×g for 10 minutes. The supernatant was collected and centrifuged at 9000×g for 20 minutes. The resultant P2 pellet was suspended as a 10% (original wet weight/volume) suspension in 50 mM Na/K phosphate buffer (pH 7.4) 200 mM NaCl to form the homogenate.
One hundred microliter […] aliquots of the P2 homogenate (0.5 milligrams (mg) protein) were incubated with 2 nanomolar (nM) [^35S]TBPS (70-110 curies/millimole; New England Nuclear, Boston, Mass.) in the presence or absence of the naturally occurring steroids or their synthetic derivatives to be tested. The tested compounds were dissolved in dimethylsulfoxide (Baker Chem. Co., Phillipsburg, N.J.) and added to the incubation mixture in 5 μL aliquots. The incubation mixture was brought to a final volume of 1 mL with buffer. Non-specific binding was defined as binding in the presence of […]. The effect and specificity of GABA (Sigma Chem. Co., St. Louis, Mo.) was evaluated by performing all assays in the presence of GABA plus (+)bicuculline (Sigma Chem. Co.). Incubations maintained at 25° C. for 90 minutes (steady state conditions) were terminated by rapid filtration through glass fiber filters (No. 32, Schleicher and Schuell, Keene, N.H.). Filter-bound radioactivity was quantitated by liquid scintillation spectrophotometry. Kinetic data and compound/[^35S]TBPS dose-response curves were analyzed by nonlinear regression using a computerized iterative procedure to obtain rate constants and IC50 (concentration of compound at which half-maximal inhibition of basal [^35S]TBPS binding occurs) values.
Various compounds were screened to determine their potential as modulators of [^35S]TBPS binding in vitro. These assays were performed in accordance with the above discussed procedures. Based on these assays, we have established the structure-activity requirements for their specific interaction at the GRC and their rank order potency and efficacy. Experimental data obtained in this assay for a number of 3α-hydroxypregnan-20-one derivatives is discussed in Gee, K. W. et al., European Journal of Pharmacology, 136:419-423 (1987) and in U.S. Pat. No. 5,232,917. Table 1 provides IC50 and maximum inhibition (IMAX) measurements for numerous compounds, including examples of compounds disclosed and claimed herein. IC50 is defined as concentration of compounds to inhibit 50% of control [^35S]TBPS binding. It is an indication of a compound's in vitro potency. Maximum inhibition is an indication of a compound's in vitro efficacy.

Experiment [3] concerns time spent on the open-arms. The experiment is described as follows: Elevated plus-maze test. In kind it is in vivo, N.I.H. Swiss-Webster mice. An excerpt:
The theoretical basis for the elevated plus-maze test is similar to that of the fight/dark transition test. As it was described previously by Pellow et al. J. Neurosci. Meth. 14:149-167 (1985)), the elevated plus-maze apparatus is designed to utilize the mice's natural aversion to open spaces. The apparatus consists of two open-arms and two enclosed-arms. The elevated plus-maze test allows for two measures of anxiety, the number of entries into the open-arms and the time spent on the open-arms, both expressed as a percentage of the total number of entries and time spent in/on both the open-arms and enclosed-arms.
Male N.I.H Swiss-Webster mice (Harlan, Indianapolis, Ind.) weighing 15-20 g were housed four per cage in polyethylene cages with sawdust bedding. The colony room was environmentally controlled (22° C.) with a 12 hr light/dark cycle (0600-1800 hr). Food and water were available ad libitum, except during testing. The experiments were run from 0700-1500 hr and groups were counterbalanced for time of day effects. Mice were only administered drug or vehicle once.
The method used was previously described (Lister, Psychopharmacol. 92:180-185 (1987)). The apparatus included two open arms perpendicular to two enclosed arms elevated 50 cm from the floor. Each arm was 50 cm long and the walls of the enclosed arms were 40 cm tall. The maze was made completely of black plexiglass. Incandescent 200 W light bulbs were above each of the open arms to produce a strong contrast between the open arms and the enclosed arms.
[…] Swiss-Webster mice were placed in the center of the plus-maze facing an open arm. During the 5 min test period, the number of entries onto the open arms and the enclosed arms, and the time spent in the open arms and enclosed arms were measured. All four paws had to be within an arm for the dependent variable to be measured. Therefore, the time spent in the center of the maze is not counted, so the total time spent in the open arms and the enclosed arms may not equal 5 min.

[4] abbreviates: IP, 50% hpbcd, 10 mg/kg, 10 min before metrazol 85 mg/kg.

Counter-ions that a name gives are not always drawn.

For `CC1(C2CCC3C4CCC5CC(O)(C(F)(F)F)CCC5C4CCC32C)OC(C(=O)[O-])C(C(=O)[O-])O1.[K+].[K+]` (stereo not drawn) [20,20-[2′,3′-Bis(carboxy)ethylenedioxy]-3α-hydroxy-3β-trifuoromethyl-5β-19-norpregnane, dipotassium salt], in experiment [1] (PO, 10% hpbcd, 10 mg/kg), the “% Protected” value is recorded as 25%.
Turning to `COC1CCC2C3CCC4CC(O)(C#CCCO)CCC4(C)C3CCC12C` (stereo not drawn) [3α-Hydroxy-3β-(4′-hydroxybutyn-1-yl)-17α-methoxy-5β-androstane], in experiment [1] (setting [4]), the “% Protected” value is recorded as 50%.
As for `C[C@]12CC[C@@H](O)C[C@H]1CC[C@@H]1[C@@H]2CC[C@]2(C)[C@@H](C(=O)C[S+]([O-])c3ccncc3)CC[C@@H]12` (stereo partly drawn) [3α-Hydroxy-21-(pyrid-4-ylsulfinyl)-5β-pregnan-20-one], in experiment [2], the IC50 stood at 235 nM and the “IMAX (maximum inhibition)” value is 73%. Further, the “Plus-Maze (% Control), time spent on the open-arms” value (shortened to “Plus-Maze (% Control), time spent”) in experiment [3] (IP, 50% hpbcd, 10 mg/kg) is reported as 171 % Control. Besides, the “% Protected” value in experiment [1] (setting [4]) came out at 25%.
The like results for `C#CC1(O)CCC2(C)C(CCC3C2CCC2(C)C(C(=O)CSCCS(=O)(=O)O)CCC32)C1` (stereo not drawn) [3β-ethynyl-3α-hydroxy-21-thioethanesulfonate-5β-pregnan-20-one sodium salt] were, in that order, 607 nM, 93%, 127 % Control and 0%.
Turning to `C#C[C@@]1(O)CC[C@@]2(C)[C@@H](CC[C@@H]3[C@@H]2CC[C@]2(C)[C@@H](OC)CC[C@@H]32)C1` [3β-Ethynyl-3α-hydroxy-17β-methoxy-5α-androstane], in experiment [2], the IC50 worked out at 122 nM and the “IMAX (maximum inhibition)” value was 106%. Moreover, the “Plus-Maze (% Control), time spent” value in experiment [3] (IP, 50% hpbcd, 10 mg/kg) is on record as 129 % Control.
With `COC1CCC2C3CCC4CC(O)(C#CCCO)CCC4(C)C3CCC12C` (stereo not drawn) [3β-(4′-Hydroxybutyn-1′yl)-3α-hydroxy-17β-methoxy-5β-androsta] [3β-(4′-Hydroxy-1-′-butynyl)-3α-hydroxy-17β-methoxy-5β-androstane], in experiment [2], the IC50 was 26 nM and the “IMAX (maximum inhibition)” value is 105%. Also, the “% Protected” value in experiment [1] (IP, 50% hpbcd, 10 mg/kg, 10 min before metrazol 85 mg/kg, listed as 3α-Hydroxy-3β-(4′-hydroxybutyn-1-yl)-17β-methoxy-5β-androstane) was found to be 75%.
`C[C@]12CC[C@@H](O)C[C@H]1CC[C@@H]1[C@@H]2CC[C@]2(C)[C@@H](C(=O)CSc3ccccn3)CC[C@@H]12` [3α-Hydroxy-21-(pyrid-2-ylthio)-5β-pregnan-20-one]: in experiment [2], the IC50 was found to be 90 nM and the “IMAX (maximum inhibition)” value is given as 66%. Besides, the “Plus-Maze (% Control), time spent” value in experiment [3] (IP, 50% hpbcd, 20 mg/kg) was 187 % Control. In experiment [1] (IP, 50% hpbcd, 20 mg/kg), the “% Protected” value is on record as 12.5%.
`COC1CCC2C3CCC4CC(O)(C#CCCOC(=O)CCC(=O)O)CCC4(C)C3CCC12C` (stereo not drawn) [3β-(4′-hydroxy-1′-butynyl)-3α-hydroxy-17β-methoxy-5β-androstane 4′-hemisuccinate sodium salt]: in experiment [2], the half-maximal inhibitory concentration (IC50) stood at 108 nM and the “IMAX (maximum inhibition)” value is listed as 100%. For the same compound, the “Plus-Maze (% Control), time spent” value in experiment [3] (PO, water, 10 mg/kg) is reported as 309 % Control. For the same compound, the “% Protected” value in experiment [1] (IP, water, 10 mg/kg) is reported as 75%.
Turning to `C[C@]12CC[C@@H](O)C[C@H]1CC[C@@H]1[C@@H]2CC[C@]2(C)[C@@H](C(=O)CSc3ccncc3)CC[C@@H]12` [3α-hydroxy-21-(pyrid-4-ylthio)-5β-pregnan-20-one], in experiment [2], the IC50 turned out to be 59 nM and the “IMAX (maximum inhibition)” value is 74%. Besides, the “Plus-Maze (% Control), time spent” value in experiment [3] (IP, 50% hpbcd, 10 mg/kg) stood at 151 % Control. Moreover, in experiment [1] (setting [4]), the “% Protected” value was determined as 75%.
With `COC1CCC2C3CCC4CC(O)(CCl)CCC4(C)C3CCC12C` (stereo not drawn) [3β-Chloromethyl-3α-hydroxy-17β-methoxy-5α-androstane], in experiment [2], the 50% inhibitory concentration (IC50) is 361 nM and the “IMAX (maximum inhibition)” value came to 98%. Moreover, the “% Protected” value in experiment [1] (setting [4]) was found to be 12.5%.
In the case of `C=C[C@@]1(O)CC[C@@]2(C)[C@@H](CC[C@@H]3[C@@H]2CC[C@]2(C)[C@@H](OC)CC[C@@H]32)C1` [3β-Ethenyl-3α-hydroxy-17β-methoxy-5α-androstane], in experiment [2], the concentration for half-maximal inhibition (IC50) turned out to be 133 nM and the “IMAX (maximum inhibition)” value amounted to 104%. Further, the “Plus-Maze (% Control), time spent” value in experiment [3] (IP, 50% hpbcd, 10 mg/kg) was found to be 127 % Control.
On to `C#CCC1(O)CCC2(C)C(CCC3C2CCC2(C)C(OC)CCC32)C1` (stereo not drawn) [3α-Hydroxy-17β-methoxy-3β-(2-propynyl)-5α-androstane], for which, in experiment [2], the IC50 was 387 nM and the “IMAX (maximum inhibition)” value amounted to 101%. Further, the “% Protected” value in experiment [1] (setting [4]) is 12.5%.
Consider `COC1CCC2C3CCC4CC(O)(C#CCCO)CCC4(C)C3CCC12C` (stereo not drawn) [3β-(4′-Hydroxybutyn-1′-yl)-3α-hydroxy-17β-methoxy-5α-androst] [3β-(4′-Hydroxy-1-′-butynyl)-3α-hydroxy-17β-methoxy-5α-androstane], for which, in experiment [2], the half-maximal inhibitory concentration (IC50) was found to be 47 nM and the “IMAX (maximum inhibition)” value is on record as 104%. In experiment [3] (IP, 50% hpbcd, 10 mg/kg), the “Plus-Maze (% Control), time spent” value is recorded as 158 % Control.
`CC12CCC(O)(C#CCCO)CC1CCC1C2CCC2(C)C(C(=O)CSc3ccncc3)CCC12` (stereo not drawn) [3α-Hydroxy-3β-(4-hydroxybutynyl)-21-(pyrid-4-ylthio)-5β-pregnan-20-one]: in experiment [2], the IC50 is 15 nM and the “IMAX (maximum inhibition)” value stood at 100%. Further, the “% Protected” value in experiment [1] (setting [4]) is 50%.
With `CCCO[C@H]1C[C@@]2(C)[C@@H](CC[C@@H]3[C@@H]2CC[C@]2(C)[C@@H](C(=O)CS(=O)(=O)CCCS(=O)(=O)[O-])CC[C@@H]32)C[C@@H]1O.[Na+]` [3α-Hydroxy-2β-propoxy-21-sulfonylpropanesulfonate-5α-pregnan-20-one sodium salt], in experiment [2], the concentration for half-maximal inhibition (IC50) was 1020 nM and the “IMAX (maximum inhibition)” value came out at 101%.
